Test results published in patent EP4803513A1, “SUBSTITUTED QUINAZOLINE COMPOUND, PREPARATION METHOD THEREFOR, PHARMACEUTICAL COMBINATION THEREOF, AND USE THEREOF” (Hongyun Biotech Co., Ltd., priority 2023, dated 2025).

Key:
[1] = test system: WT-BaF3 cells; assay: Cell antiproliferative activity assay (CCK-8), WT-BaF3 (broad-spectrum cytotoxicity); format: cell-based; settings: 72 h; WT-BaF3 cells (IL-3 supplemented), CCK-8, 3 days incubation
Experimental: (§1) The activity of compounds against BRK kinase can be evaluated by their inhibition of the growth of the BRK kinase-stably transfected BaF3 cell line (BRK-BaF3) and wild-type BaF3 cells (WT-BaF3). […] The larger the ratio of the half-maximal growth inhibitory concentration (IC50) of a compound between WT-BaF3 and BRK-BaF3 cells, the better the selectivity of the compound.
(§2) BRK-BaF3, WT-BaF3, WEHI cell line, and breast cancer cell line T47D were cultured using RPMI 1640 Basal medium or DMEM (Dulbecco's Modified Eagle Medium) (Shanghai Peiyuan Biotechnology, L220KJ), supplemented with 10% FBS (Gibco, REF 10099-141C) and 1% P/S (Shanghai Peiyuan Biotechnology, S110JV), in an incubator (Thermo 3020) at 37°C with 5% CO2. Cell viability was above 95%. Cells were passaged at a 3:1 ratio every 3-4 days. For WT-BaF3 cells, WEHI cells were first cultured, and their culture supernatant was filtered through a 0.22 µm filter. This supernatant was added at 10% to the regular culture medium to supplement IL-3 required for WT-BaF3 cell proliferation, which served as the culture medium for WT-BaF3. For testing, cells were first collected and counted, then prepared into a cell suspension at 100,000 cells/mL and plated at 100 µL per well. Drug concentrations started from 10 µM and were serially diluted 3:1. After incubation for 3 days, 20 µL of CCK-8 detection reagent (Targetmol C005) was added to each well. After incubation for 2-4 hours, OD450 was measured using a microplate reader (Varioskan LUX, Thermo Scientific). After subtracting the blank background, the curve was fitted and the IC50 was calculated using XLfit software.

[2] = test system: BRK-BaF3 cells; assay: Cell antiproliferative activity assay (CCK-8), BRK-BaF3; format: cell-based; settings: 72 h, CCK-8, 3 days incubation
Experimental: as §1, §2

| IC50 [2] | SMILES | IC50 [1] |
| --- | --- | --- |
| ≤ 20 nM | Cc1ccnc(C)c1-c1cc(C(F)(F)F)c2nc(Nc3cn(CCO)nc3C)ncc2c1 [I-77] | 500 to 2500 nM |
| ≤ 20 nM | Cc1nn(CCO)cc1Nc1ncc2cc(-c3nccnc3F)cc(C(C)C)c2n1 [I-79] | 500 to 2500 nM |
| ≤ 20 nM | COCCN(C)CCn1ncc(Nc2ncc3cc(-c4cc(=O)[nH]cc4C)cc(C(C)C)c3n2)c1C [III-55] | – |
| ≤ 20 nM | Cc1c[nH]c(=O)cc1-c1cc(C(C)C)c2nc(Nc3cn(CCN(C)CC(C)(C)O)nc3C)ncc2c1 [III-56] | – |
| ≤ 20 nM | Cc1c[nH]c(=O)cc1-c1cc(C(C)C)c2nc(Nc3cnn(CCN(C)CC(C)(C)O)c3C)ncc2c1 [III-57] | – |
| ≤ 20 nM | Cc1c[nH]c(=O)cc1-c1cc(C(C)C)c2nc(Nc3cn(CCN4CCOC[C@@H]4C)nc3C)ncc2c1 [III-59] | – |
| ≤ 20 nM | Cc1c[nH]c(=O)cc1-c1cc(C(C)C)c2nc(Nc3cnn(CCN4CCOC[C@@H]4C)c3C)ncc2c1 [III-60] | – |
| 20 to 100 nM | Cc1c[nH]c(=O)cc1-c1cc(C(C)C)c2nc(Nc3cn(CCN4CCOC[C@H]4C)nc3C)ncc2c1 [III-61] | – |
| ≤ 20 nM | Cc1c[nH]c(=O)cc1-c1cc(C(C)C)c2nc(Nc3cnn(CCN4CCOC[C@H]4C)c3C)ncc2c1 [III-62] | – |
| ≤ 20 nM | Cc1c[nH]c(=O)cc1-c1cc(C(C)C)c2nc(Nc3cn(CCN4CCCC4)nc3C)ncc2c1 [III-64] | – |
| ≤ 20 nM | Cc1c[nH]c(=O)cc1-c1cc(C(C)C)c2nc(Nc3cnn(CCN4CCCC4)c3C)ncc2c1 [III-65] | – |
| 20 to 100 nM | Cc1c[nH]c(=O)cc1-c1cc(C(C)C)c2nc(Nc3cn(CC(=O)NCCF)nc3C)ncc2c1 [III-70] | – |
| 20 to 100 nM | Cc1c[nH]c(=O)cc1-c1cc(C(C)C)c2nc(Nc3cn(CC(=O)NCC(F)F)nc3C)ncc2c1 [III-71] | – |
| 20 to 100 nM | Cc1c[nH]c(=O)cc1-c1cc(C(C)C)c2nc(Nc3cn(CC(=O)NC4CCC4)nc3C)ncc2c1 [III-72] | – |
| 20 to 100 nM | Cc1c[nH]c(=O)cc1-c1cc(C(C)C)c2nc(Nc3cn(CC(=O)NC4CC4)nc3C)ncc2c1 [III-73] | – |
| 20 to 100 nM | Cc1c[nH]c(=O)cc1-c1cc(C(C)C)c2nc(Nc3cn(CC(=O)N(C)C(C)C)nc3C)ncc2c1 [III-74] | – |
| 20 to 100 nM | C#CCN(C)C(=O)Cn1cc(Nc2ncc3cc(-c4cc(=O)[nH]cc4C)cc(C(C)C)c3n2)c(C)n1 [III-76] | – |
| ≤ 20 nM | Cc1c[nH]c(=O)cc1-c1cc(C2CC2)c2nc(Nc3cn(C)nc3C)ncc2c1 [III-80] | – |
| ≤ 20 nM | Cc1c[nH]c(=O)cc1-c1cc(C2CC2)c2nc(Nc3cnn(C)c3C)ncc2c1 [III-81] | – |
| ≤ 20 nM | Cc1c[nH]c(=O)cc1-c1cc(C2CC2)c2nc(Nc3cn(C4COC4)nc3C)ncc2c1 [III-82] | – |
| 20 to 100 nM | CCc1cc(-c2cc(=O)[nH]cc2C)cc2cnc(Nc3cn(C)nc3C)nc12 [III-84] | – |
| ≤ 20 nM | Cc1ccc2[nH]ncc2c1-c1cc(C(C)C)c2nc(Nc3cn(C)nc3C)ncc2c1 [III-89] | – |
| ≤ 20 nM | Cc1nccnc1-c1cc(C(C)C)c2nc(Nc3cnn(C)c3C)ncc2c1 [III-100] | – |
| ≤ 20 nM | Cc1cccnc1-c1cc(C(C)C)c2nc(Nc3cn(C)nc3C)ncc2c1 [III-119] | – |
| ≤ 20 nM | Cc1nn(C)cc1Nc1ncc2cc(-c3cccnc3C(F)F)cc(C(C)C)c2n1 [III-123] | – |
| ≤ 20 nM | Cc1ccncc1-c1cc(C(C)C)c2nc(Nc3cn(C4CCN(C)CC4)nc3C)ncc2c1 [III-129] | – |
| ≤ 20 nM | Cc1ccc(C#N)cc1-c1cc(C(C)C)c2nc(Nc3cn(C4CCN(C)CC4)nc3C)ncc2c1 [III-131] | – |

Continued, compound first:

| SMILES | IC50 [2] | IC50 [1] |
| --- | --- | --- |
| Cc1nn(CCO)cc1Nc1ncc2cc(-c3ccccn3)cc(C(C)C)c2n1 [I-1] | ≤ 20 nM | 500 to 2500 nM |
| Cc1nn(CCO)cc1Nc1ncc2cc(-c3ncccc3F)cc(C(C)C)c2n1 [I-2] | ≤ 20 nM | > 2500 nM |
| Cc1cccnc1-c1cc(C(C)C)c2nc(Nc3cn(CCO)nc3C)ncc2c1 [I-3] | ≤ 20 nM | > 2500 nM |
| COc1cccnc1-c1cc(C(C)C)c2nc(Nc3cn(CCO)nc3C)ncc2c1 [I-4] | ≤ 20 nM | > 2500 nM |
| Cc1nn(CCO)cc1Nc1ncc2cc(-c3ccccn3)cc(C(F)(F)F)c2n1 [I-9] | ≤ 20 nM | > 2500 nM |
| Cc1nn(CCO)cc1Nc1ncc2cc(-c3ccncc3)cc(C(C)C)c2n1 [I-10] | 20 to 100 nM | 500 to 2500 nM |
| Cc1nn(CCO)cc1Nc1ncc2cc(-c3ccncc3F)cc(C(C)C)c2n1 [I-11] | ≤ 20 nM | 500 to 2500 nM |
| Cc1cnccc1-c1cc(C(C)C)c2nc(Nc3cn(CCO)nc3C)ncc2c1 [I-12] | ≤ 20 nM | 500 to 2500 nM |
| COc1cnccc1-c1cc(C(C)C)c2nc(Nc3cn(CCO)nc3C)ncc2c1 [I-13] | ≤ 20 nM | > 2500 nM |
| Cc1cnc(F)cc1-c1cc(C(C)C)c2nc(Nc3cn(CCO)nc3C)ncc2c1 [I-17] | ≤ 20 nM | 500 to 2500 nM |
| COc1ncccc1-c1cc(C(C)C)c2nc(Nc3cn(CCO)nc3C)ncc2c1 [I-25] | ≤ 20 nM | > 2500 nM |
| Cc1nn(CCO)cc1Nc1ncc2cc(-c3cccnc3C#N)cc(C(C)C)c2n1 [I-26] | ≤ 20 nM | > 2500 nM |
| Cc1nn(CCO)cc1Nc1ncc2cc(-c3cccnc3C3CC3)cc(C(C)C)c2n1 [I-28] | 20 to 100 nM | 500 to 2500 nM |
| Cc1nn(CCO)cc1Nc1ncc2cc(-c3cnccc3F)cc(C(C)C)c2n1 [I-31] | ≤ 20 nM | > 2500 nM |
| COc1ccncc1-c1cc(C(C)C)c2nc(Nc3cn(CCO)nc3C)ncc2c1 [I-33] | ≤ 20 nM | > 2500 nM |
| Cc1nn(CCO)cc1Nc1ncc2cc(-c3cnccc3C#N)cc(C(C)C)c2n1 [I-34] | ≤ 20 nM | > 2500 nM |
| Cc1nn(CCO)cc1Nc1ncc2cc(-c3cc(F)cnc3F)cc(C(C)C)c2n1 [I-40] | ≤ 20 nM | > 2500 nM |
| Cc1nn(CCO)cc1Nc1ncc2cc(-c3cc(C#N)cnc3C)cc(C(C)C)c2n1 [I-42] | ≤ 20 nM | > 2500 nM |
| Cc1nn(CCO)cc1Nc1ncc2cc(-c3c(Cl)ccnc3Cl)cc(C(C)C)c2n1 [I-44] | ≤ 20 nM | 500 to 2500 nM |
| Cc1nn(CCO)cc1Nc1ncc2cc(-c3c(F)ccnc3Cl)cc(C(C)C)c2n1 [I-45] | ≤ 20 nM | > 2500 nM |
| Cc1ccnc(C)c1-c1cc(C(C)C)c2nc(Nc3cn(CCO)nc3C)ncc2c1 [I-47] | ≤ 20 nM | 500 to 2500 nM |
| Cc1nn(CCO)cc1Nc1ncc2cc(-c3c(Cl)ccnc3N)cc(C(C)C)c2n1 [I-49] | ≤ 20 nM | > 2500 nM |
| Cc1ccnc(N)c1-c1cc(C(C)C)c2nc(Nc3cn(CCO)nc3C)ncc2c1 [I-50] | ≤ 20 nM | > 2500 nM |
| Cc1ncc(F)cc1-c1cc(C(C)C)c2nc(Nc3cnn(CCO)c3)ncc2c1 [I-52] | ≤ 20 nM | > 2500 nM |
| Cc1ncccc1-c1cc(C(C)C)c2nc(Nc3cnn(CCO)c3C)ncc2c1 [I-66] | 20 to 100 nM | 500 to 2500 nM |
| Cc1nn(CCO)cc1Nc1ncc2cc(-c3cccnc3)cc(C3CC3)c2n1 [I-72] | ≤ 20 nM | 100 to 500 nM |
| Cc1nn(CCO)cc1Nc1ncc2cc(-c3cc(F)cnc3C)cc(C3CC3)c2n1 [I-74] | ≤ 20 nM | 500 to 2500 nM |
| Cc1nn(CCO)cc1Nc1ncc2cc(-c3cccnc3)cc(C(F)(F)F)c2n1 [I-75] | ≤ 20 nM | > 2500 nM |
| Cc1nn(CCO)cc1Nc1ncc2cc(-c3cccnc3C)cc(C(F)(F)F)c2n1 [I-76] | ≤ 20 nM | > 2500 nM |
